EC50 data for 60 molecules are collected here from PubChem BioAssay AID489040 (Sanford-Burnham Center for Chemical Genomics, 2010).

What is called EC50 is the concentration at which the effect is half-maximal. For orientation: pEC50 means the EC50 on a negative log10 scale, so that one unit is a factor of ten.

The structures appear in SMILES notation. pEC50: −log10 of the molar value. Active and inactive are the calls of the source.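 The calls were made as follows: active = mean half-maximal activating concentration from the dose-response fit at or below a set limit; inactive = the rest.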

In the assay the target is CHO-XBP1 luciferase reporter, IRE1-XBP1 UPR activation. The experiment in a line: activators of IRE1-XBP1 UPR arm, dose response, counter-screen for apoptotic UPR arm activators, CHO-XBP1 cells, luminescence (AID 489040).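 Also: reporter read after six hours of compound exposure.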
Regarding `Cc1cccnc1Nc1nc(-c2ccccn2)cs1`, the EC50 is > 80 µM (inactive).
For `Oc1c(CN2CCCCC2)cc(Br)c2cccnc12`, the EC50 is > 80 µM (inactive).
The same measure, in the same setting: as for `CCOc1ccc(-c2nnc(SCC(=O)Nc3ccc4c(c3)c3ccccc3n4CC)n2N)cc1`, the figure is > 80 µM (inactive).
Regarding `O=C(CCl)Nc1ccc(-c2ccccc2)cc1`, the EC50 is > 80 µM (inactive).
The same measure, in the same setting: as for `Cc1cc(O)c(-c2cc(O)c(C)cc2O)cc1O`, the figure is > 80 µM (inactive); as for `CCc1cc2c(=O)c(-c3cnn(-c4ccccc4)c3)c(C)oc2cc1OCC(=O)Nc1cccc(C)c1`, “inactive”.
For the molecule `O=C(Nc1ccc(S(=O)(=O)N2CCCC2)cc1)c1ccc([N+](=O)[O-])o1`, the EC50 is > 80 µM (inactive).
`COc1ccccc1C(=O)NC(=S)NNC(=O)c1sc2ccccc2c1Cl`: the EC50 result was “inactive”.
The same measure, in the same setting: as for `Oc1ccc(/C=N/N(c2ccccc2)c2ccccc2)cc1O`, the entry is “inactive”; as for `CCOC(=O)/C(=C\c1ccc(Cl)cc1)c1nc2sc(C)c(C)c2c(=O)[nH]1`, > 80 µM (inactive).
The same measure, in the same setting: as for `C/C(=N\NC(=O)c1cc(Br)ccc1O)c1ccccn1`, the figure is > 80 µM (inactive).
Still for that read-out and setting: as for `Cc1ccc(C(=O)Oc2ccc(Cl)c3cccnc23)cc1[N+](=O)[O-]`, the figure is > 80 µM (inactive); as for `Cc1cccc(OCCN2CSC(=S)N(C)C2)c1`, > 80 µM (inactive).
Consider `O=C(NC1CCCC1)C(c1ccc(Cl)cc1)N(Cc1ccc(F)cc1)C(=O)CCl` (stereo not given), for which the EC50 was > 80 µM (inactive).
Still for that read-out and setting: as for `COC(=O)c1c(NC(=O)CC2Nc3ccccc3NC2=O)sc(C)c1C` (stereo not given), the figure is > 80 µM (inactive); as for `CC1(C)C=Cc2c(c3c(c4c(=O)c(-c5ccc(O)cc5)coc24)OC(C)(C)CC3)O1`, “inactive”; as for `Cc1ccc(/C=C2\CCC3=C2OC(N)=C(C#N)C3c2ccc(C)cc2)cc1` (stereo not given), > 80 µM (inactive).
On the same count and under the same terms, as for `O=[N+]([O-])c1ccc2nc(Cl)nc(-c3ccccc3)c2c1`, the figure is > 80 µM (inactive).
Regarding `COc1ccccc1-c1cc(C(F)(F)F)nc(S(=O)(=O)CCCC(=O)NCc2ccc(F)cc2)n1`, the EC50 was > 80 µM (inactive).
Regarding `O=C(Nc1nc2ccc(F)cc2s1)c1ccccn1`, the EC50 was > 80 µM (inactive).
For the molecule `C=CCn1nc([N+](=O)[O-])nc1Sc1cccc2cccnc12`, the EC50 was > 80 µM (inactive).
Same read-out and setting: as for `C[C@@H]1C[C@@H]2O[C@H]2/C=C\C=C\C(=O)Cc2c(Cl)c(O)cc(O)c2C(=O)O1`, the figure is > 80 µM (inactive).
Take `CN(C)CC(CCC(CN(C)C)C(O)(c1ccccc1)c1ccccc1)C(O)(c1ccccc1)c1ccccc1` (stereo not given): the EC50 is > 80 µM (inactive).
Still for that read-out and setting: as for `Cc1ccc(C)c2sc(N3CCN(C(=O)c4ccc([N+](=O)[O-])o4)CC3)nc12`, the figure is > 80 µM (inactive).
On the same count and under the same terms, as for `Cc1nc(SCC(=O)Nc2ccc(F)cc2)c(C#N)c(C)c1CC(=O)c1ccc(Br)cc1`, the figure is > 80 µM (inactive); as for `Cc1cccc(Nc2nc3c(S(=O)(=O)c4ccccc4)nnn3c3ccccc23)c1C`, “inactive”.
Still for that read-out and setting: as for `COc1ccc(/C=C/C(=O)Oc2ccc(C)cc2)cc1`, the figure is > 80 µM (inactive); as for `CC(NC(=O)CN(c1cccc(C(F)(F)F)c1)S(=O)(=O)c1ccc(Cl)c([N+](=O)[O-])c1)c1ccccc1` (stereo not given), > 80 µM (inactive).
For the molecule `COc1cc(CN2CCN(c3cc(C)ccc3C)CC2)ccc1O`, the EC50 was > 80 µM (inactive).
Same read-out and setting: as for `Cn1nnnc1Sc1ncnc2scc(-c3cc4ccccc4o3)c12`, the figure is > 80 µM (inactive); as for `CCCN1C/C(=C/c2ccc3c(c2)OCO3)C(=O)/C(=C/c2ccc3c(c2)OCO3)C1`, > 80 µM (inactive); as for `O=C(/C=C/Sc1ccc(C(F)(F)F)cn1)c1ccccc1`, > 80 µM (inactive).
For `COc1cc(/C=C(/C#N)c2nc3ccccc3[nH]2)ccc1OCC(=O)Nc1ccccc1C(C)C`, the EC50 was > 80 µM (inactive).
The same measure, in the same setting: as for `COc1ccc(N=c2oc3c(OC)cccc3cc2C(=O)NCc2ccco2)c(OC)c1`, the entry is “inactive”; as for `CCOC(=O)C1=C(Cc2ccc(Cl)cc2)C(=O)c2ccccc2C1=O`, > 80 µM (inactive).
The same measure, in the same setting: as for `Cc1ccc(-c2nn(-c3ccccc3)cc2C=C2C(=O)CC(C)(C)CC2=O)cc1`, the figure is > 80 µM (inactive).
On the same count and under the same terms, as for `CC(C)N=c1scc(-c2cccs2)n1/N=C/c1ccc(O)c(O)c1O`, the figure is > 80 µM (inactive).
With `CCNc1ccccc1CP(=O)(c1ccccc1)c1ccccc1O` (stereo not given), the EC50 was > 80 µM (inactive).
For the molecule `Cc1ccc(C)c(NC(=O)/C(C#N)=C/c2cn(CC(=O)NCc3ccco3)c3ccccc23)c1`, the pEC50 was 5.20.
Regarding `Oc1ccc(/C=N/Nc2cc(N3CCOCC3)nc(N3CCOCC3)n2)cc1O`, the EC50 is > 80 µM (inactive).
For the molecule `COc1ccc(-c2cc(C(F)F)n3ncc(C(=O)n4ccnc4C)c3n2)cc1`, the EC50 was > 80 µM (inactive).
Take `C[C@@H](NC(=O)c1coc(=O)c(Br)c1)c1ccccc1`: the EC50 was > 80 µM (inactive).
Still for that read-out and setting: as for `CC(C)c1nnc(NC(=O)CCS(=O)(=O)c2nc(-c3cccs3)cc(C(F)(F)F)n2)s1`, the figure is > 80 µM (inactive).
Still for that read-out and setting: as for `O=Cc1ccc(O)c2ncccc12`, the figure is > 80 µM (inactive); as for `Cc1ccc(CS(=O)(=O)c2ncc(Cl)c(C(=O)Nc3nnc(C(C)C)s3)n2)cc1`, > 80 µM (inactive).
The same measure, in the same setting: as for `COC(=O)c1cc(=O)n(CCc2ccc(OC)c(OC)c2)c(=Nc2ccc(F)c(Cl)c2)s1`, the figure is > 80 µM (inactive); as for `Cc1ccc(-n2nc3cc(C)c(NC(=S)NC(=O)/C=C/c4ccco4)cc3n2)cc1`, “inactive”; as for `Cn1nnnc1Sc1ncnc2scc(-c3ccc([N+](=O)[O-])cc3)c12`, > 80 µM (inactive).
Regarding `O=C(Oc1ccccc1/C=C\C(=O)c1cc2ccccc2o1)c1ccccc1`, the EC50 was > 80 µM (inactive).
The same measure, in the same setting: as for `CC(C)(C)N1CSC(=S)N(Cc2ccccc2)C1`, the figure is > 80 µM (inactive); as for `Cc1nc([N+](=O)[O-])c(Br)n1CC(=O)c1ccc(Cl)cc1`, > 80 µM (inactive); as for `COc1ccc(/C=C/C(=O)c2ccc(C(=O)/C=C/c3ccc(OC)c(OC)c3)cc2)cc1OC`, > 80 µM (inactive).
As to `O=C(Nc1nccs1)c1cccc(N2C(=O)c3cccc4c([N+](=O)[O-])ccc(c34)C2=O)c1`, the EC50 was > 80 µM (inactive).
Still for that read-out and setting: as for `COc1ccc(N=C2S/C(=C\c3ccc(N4CCOCC4)o3)C(=O)N2CCc2c[nH]c3ccccc23)cc1`, the figure is > 80 µM (inactive); as for `O=C(COc1ccc2ccccc2c1)N1CCN(Cc2c[nH]c3ccccc23)CC1`, > 80 µM (inactive).
Still for that read-out and setting: as for `Cc1cccc(-n2c(/C=C/c3ccc([N+](=O)[O-])o3)nc3ccccc3c2=O)c1`, the figure is > 80 µM (inactive).
For the molecule `CCOC(=O)c1cnc(Nc2nc3ccccc3o2)nc1CSC(=S)N(CC)CC`, the pEC50 was 5.34.
As to `Cc1ccc(/C=C/C(=O)c2ccc([N+](=O)[O-])o2)cc1`, the EC50 is > 80 µM (inactive).
Same read-out and setting: as for `CCOC(=O)/C(=C\c1cccc(O)c1)c1nc2sc(C)c(C)c2c(=O)[nH]1`, the figure is > 80 µM (inactive); as for `Oc1ccc(-c2csc(Nc3ccccn3)n2)cc1O`, > 80 µM (inactive).
